Experimental data reported in patent US20210198319A1, “CYTOTOXIC PEPTIDES AND CONJUGATES THEREOF” (AEBI LTD., priority 2017, published 2021).
No end group written: not given here.

Columns and labels:
cells = experiment: Toxicity to cells of library peptides; assay type: cell-based; settings: cyclic peptide library, after optimization process
[1] = target: human eukaryotic elongation factor 2 (eEF2) (Homo sapiens, UniProt P13639); experiment: Cyclic peptide library tested for binding to eEF2; settings: after optimization process
Excerpt: Using the technique described in WO 2007/010525, a library of cyclic peptides was generated and tested for binding to human eukaryotic elongation factor 2 (eEF2).

**Q.** Which “toxicity to cells (rank among library peptides)” value (cells) does the source give for “Cys-Ser-Ala-Arg-Trp-Gly-Pro-Ile-Met-Pro-Trp-Cys (CSARWGPIMPWC; also: cyclic, ring type not given here) [GW2]” here?
**A.** most potent peptide

**Q.** And the “binding to eEF2 (rank among library peptides)” value [1]?
**A.** most potent peptide
